In patent publication US9527838B2, “2-pyridinecarboxamide derivatives, compositions containing such compounds, and methods of treatment” (priority 2012, dated 2016):
Like-named read-outs stand apart in the source and are kept apart here.

Molecular target: Recombinant human liver glucokinase (Homo sapiens (Human), UniProt P35557)
Experiment: Glucokinase activation assay (G6PDH-coupled, Thio-NADH absorbance at 405 nm)
Type: biochemical
Settings: for EC50: 30° C.
Description: The glucokinase activity can, for instance, be determined without directly measuring glucose-6-phosphate by measuring the amount of Thio-NADH generated during the production of phosphogluconolactone from glucose-6-phosphate by a reporter enzyme glucose-6-phosphate dehydrogenase.
To test the exemplified compounds, the following assay was employed. Recombinant human liver glucokinase was expressed as a FLAG fusion protein in E. coli, and purified on […] M2 AFFINITY GEL (Sigma). The assay was carried out at 30° C. in a 96-well plate. In the plate was distributed 69 μl each of assay buffer (25 mM Hepes Buffer: pH=7.2, 2 mM MgCl2, 1 mM ATP, 0.5 mM TNAD, 1 mM dithiothreitol), to which was added 1 μl of a DMSO solution of the compound or DMSO as control. Then, 20 μl of pre-ice-cooled enzyme mixture (FLAG-GK, 20 U/ml G6PDH) was distributed thereto, to which was added 10 μl of 25 mM glucose as substrate to initiate the reaction (final glucose concentration=2.5 mM). After starting the reaction, the absorbance at 405 nm was measured every 30 seconds for 10 minutes to evaluate the compound based on the initial increase for 5 minutes. FLAG-GK was added so that the increase of absorbance after 5 minutes fell between 0.05 to 0.1 in the presence of 1% DMSO.
The OD values of the respective compounds were measured in the respective concentrations, wherein the OD value of DMSO as control is regarded as 100%.

Recombinant human liver glucokinase, sequence (P35557 other isoform, or with tags, fused parts or gaps): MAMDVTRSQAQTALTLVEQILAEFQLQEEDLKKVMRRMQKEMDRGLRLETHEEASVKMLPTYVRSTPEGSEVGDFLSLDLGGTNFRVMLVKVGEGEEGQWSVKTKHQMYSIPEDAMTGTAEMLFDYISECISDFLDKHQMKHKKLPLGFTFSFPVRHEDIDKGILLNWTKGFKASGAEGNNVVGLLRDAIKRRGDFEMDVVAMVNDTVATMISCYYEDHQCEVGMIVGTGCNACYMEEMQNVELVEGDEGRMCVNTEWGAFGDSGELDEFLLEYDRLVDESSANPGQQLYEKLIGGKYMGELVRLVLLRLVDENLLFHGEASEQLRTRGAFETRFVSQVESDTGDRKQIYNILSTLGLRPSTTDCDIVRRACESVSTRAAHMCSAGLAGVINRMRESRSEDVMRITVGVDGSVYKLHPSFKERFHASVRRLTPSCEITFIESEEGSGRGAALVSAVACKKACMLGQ

Row | SMILES | Emax | EC50 (2.5 mM Glu) | Emax (2.5 mM Glu, OD value of DMSO as control regarded as 100%, read-out: Emax)
1 | CCOC(=O)CSc1cnc(NC(=O)c2nc(Sc3nncn3C)ccc2Sc2ccc(OC)cc2)s1 [Example 1, Ethyl ({2-[({3-[(4-methoxyphenyl)sulfanyl]-6-[(4-methyl-4H-1,2,4-triazol-3-yl)sulfanyl]pyridin-2-yl}carbonyl)amino]-1,3-thiazol-5-yl}sulfanyl)acetate] | 471% | 0.0075 µM | 
2 | COc1ccc(Sc2ccc(Sc3nncn3C)nc2C(=O)Nc2ncc(SCC(=O)O)s2)cc1 [Example 2, ({2-[({3-[(4-methoxyphenyl)sulfanyl]-6-[(4-methyl-4H-1,2,4-triazol-3-yl)sulfanyl]pyridin-2-yl}carbonyl)amino]-1,3-thiazol-5-yl}sulfanyl)acetic acid] | 446% | 0.0568 µM | 
3 | CNC(=O)CSc1cnc(NC(=O)c2nc(Sc3nncn3C)ccc2Sc2ccc(OC)cc2)s1 [Example 3, 3-[(4-methoxyphenyl)sulfanyl]-N-(5-{[2-(methylamino)-2-oxoethyl]sulfanyl}-1,3-thiazol-2-yl)-6-[(4-methyl-4H-1,2,4-triazol-3-yl)sulfanyl]pyridine-2-carboxamide] | 572% | 0.0108 µM | 
4 | COc1ccc(Sc2ccc(Sc3nncn3C)nc2C(=O)Nc2ncc(SC(C)(C)C(=O)O)s2)cc1 [Example 4, 2-({2-[({3-[(4-methoxyphenyl)sulfanyl]-6-[(4-methyl-4H-1,2,4-triazol-3-yl)sulfanyl]pyridin-2-yl}carbonyl)amino]-1,3-thiazol-5-yl}sulfanyl)-2-methylpropanoic acid] | 417% | 0.0651 µM | 
5 | CCOC(=O)C(C)(C)CSc1cnc(NC(=O)c2nc(Sc3nncn3C)ccc2Sc2ccc(OC)cc2)s1 [Example 5, Ethyl 3-({2-[({3-[(4-methoxyphenyl)sulfanyl]-6-[(4-methyl-4H-1,2,4-triazol-3-yl)sulfanyl]pyridin-2-yl}carbonyl)amino]-1,3-thiazol-5-yl}sulfanyl)-2,2-dimethylpropanoate] | 490% | 0.0143 µM | 
6 | COc1ccc(Sc2ccc(Sc3nncn3C)nc2C(=O)Nc2ncc(SCC(C)(C)C(=O)O)s2)cc1 [Example 6, 3-({2-[({3-[(4-methoxyphenyl)sulfanyl]-6-[(4-methyl-4H-1,2,4-triazol-3-yl)sulfanyl]pyridin-2-yl}carbonyl)amino]-1,3-thiazol-5-yl}sulfanyl)-2,2-dimethylpropanoic acid] | 425% | 0.016 µM | 
7 | COC(=O)CCc1cnc(NC(=O)c2nc(Sc3nncn3C)ccc2Sc2ccc(OC)cc2)s1 [Example 7, Methyl 3-{2-[({3-[(4-methoxyphenyl)sulfanyl]-6-[(4-methyl-4H-1,2,4-triazol-3-yl)sulfanyl]pyridin-2-yl}carbonyl)amino]-1,3-thiazol-5-yl}propanoate] | 550% | 0.0234 µM | 
8 | COc1ccc(Sc2ccc(Sc3nncn3C)nc2C(=O)Nc2ncc(CCC(=O)O)s2)cc1 [Example 8, 3-{2-[({3-[(4-Methoxyphenyl)sulfanyl]-6-[(4-methyl-4H-1,2,4-triazol-3-yl)sulfanyl]pyridin-2-yl}carbonyl)amino]-1,3-thiazol-5-yl}propanoic acid] | 626% | 0.0587 µM | 
9 | COc1ccc(Sc2ccc(Sc3nncn3C)nc2C(=O)Nc2ccc(CC(N)=O)cc2)cc1 [Example 9, N-[4-(2-Amino-2-oxoethyl)phenyl]-3-[(4-methoxyphenyl)sulfanyl]-6-[(4-methyl-4H-1,2,4-triazol-3-yl)sulfanyl]pyridine-2-carboxamide] | 191% | 1.89 µM | 
10 | CCOC(=O)CSc1cnc(NC(=O)c2nc(Sc3ccccn3)ccc2Sc2ccc(OC)cc2)s1 [Example 10, Ethyl ({2-[({3-[(4-methoxyphenyl)sulfanyl]-6-(pyridin-2-ylsulfanyl)pyridin-2-yl}carbonyl)amino]-1,3-thiazol-5-yl}sulfanyl)acetate] |  | 0.0352 µM | 498%
11 | COc1ccc(Sc2ccc(Sc3ccccn3)nc2C(=O)Nc2ncc(SCC(=O)O)s2)cc1 [Example 11, ({2-[({3-[(4-Methoxyphenyl)sulfanyl]-6-(pyridin-2-ylsulfanyl)pyridin-2-yl}carbonyl)amino]-1,3-thiazol-5-yl}sulfanyl)acetic acid] | 509% | 0.0109 µM | 
12 | CCOC(=O)Cc1nc(NC(=O)c2nc(Sc3ccccn3)ccc2Sc2ccc(OC)cc2)sc1Cl [Example 12] | 427% | 0.0476 µM | 
13 | COc1ccc(Sc2ccc(Sc3ccccn3)nc2C(=O)Nc2nc(CC(=O)O)c(Cl)s2)cc1 [Example 13, {5-Chloro-2-[({3-[(4-methoxyphenyl)sulfanyl]-6-(pyridin-2-ylsulfanyl)pyridin-2-yl}carbonyl)amino]-1,3-thiazol-4-yl}acetic acid] | 584% | 0.009 µM | 
14 | COC(=O)CCc1cnc(NC(=O)c2nc(Sc3ccccn3)ccc2Sc2ccc(OC)cc2)s1 [Example 14, Methyl 3-{2-[({3-[(4-methoxyphenyl)sulfanyl]-6-(pyridin-2-ylsulfanyl)pyridin-2-yl}carbonyl)amino]-1,3-thiazol-5-yl}propanoate] | 486% | 0.29 µM | 
15 | COc1ccc(Sc2ccc(Sc3ccccn3)nc2C(=O)Nc2ncc(CCC(=O)O)s2)cc1 [Example 15, 3-{2-[({3-[(4-Methoxyphenyl)sulfanyl]-6-(pyridin-2-ylsulfanyl)pyridin-2-yl}carbonyl)amino]-1,3-thiazol-5-yl}propanoic acid] | 645% | 0.14 µM | 
16 | CCOC(=O)Cc1csc(NC(=O)c2nc(Sc3ccccn3)ccc2Sc2ccc(OC)cc2)n1 [Example 16, Ethyl {2-[({3-[(4-methoxyphenyl)sulfanyl]-6-(pyridin-2-ylsulfanyl)pyridin-2-yl}carbonyl)amino]-1,3-thiazol-4-yl}acetate] | 524% | 0.275 µM | 
17 | COc1ccc(Sc2ccc(Sc3ccccn3)nc2C(=O)Nc2nc(CC(=O)O)cs2)cc1 [Example 17, {2-[({3-[(4-Methoxyphenyl)sulfanyl]-6-(pyridin-2-ylsulfanyl)pyridin-2-yl}carbonyl)amino]-1,3-thiazol-4-yl}acetic acid] | 698% | 0.106 µM | 
18 | Cn1cnnc1Sc1ccc(Sc2ccc(F)cc2)c(C(=O)Nc2ncc(SCC(=O)O)s2)n1 [Example 19, ({2-[({3-[(4-Fluorophenyl)sulfanyl]-6-[(4-methyl-4H-1,2,4-triazol-3-yl)sulfanyl]pyridin-2-yl}carbonyl)amino]-1,3-thiazol-5-yl}sulfanyl)acetic acid] | 426% | 0.0231 µM | 
19 | CCOC(=O)C(C)(C)CSc1cnc(NC(=O)c2nc(Sc3nncn3C)ccc2Sc2ccc(F)cc2)s1 [Example 20] | 460% |  | 
20 | Cn1cnnc1Sc1ccc(Sc2ccc(F)cc2)c(C(=O)Nc2ncc(SCC(C)(C)C(=O)O)s2)n1 [Example 21, 3-({2-[({3-[(4-Fluorophenyl)sulfanyl]-6-[(4-methyl-4H-1,2,4-triazol-3-yl)sulfanyl]pyridin-2-yl}carbonyl)amino]-1,3-thiazol-5-yl}sulfanyl)-2,2-dimethylpropanoic acid] | 473% | 0.0172 µM | 
21 | CCOC(=O)Cc1nc(NC(=O)c2nc(Sc3nncn3C)ccc2Sc2ccc(F)cc2)sc1Cl [Example 24, Ethyl {5-chloro-2-[({3-[(4-fluorophenyl)sulfanyl]-6-[(4-methyl-4H-1,2,4-triazol-3-yl)sulfanyl]pyridin-2-yl}carbonyl)amino]-1,3-thiazol-4-yl}acetate] | 378% | 0.008 µM | 
